# Results taken from a melting point compilation (Tetko et al.; mined from patent text by program, amines drawn as free bases though some values may be those of a salt).
row,Compound,melting point
1,C#CCN(c1ccc(C(=O)OC(C)(C)C)c(F)c1)C1CCc2cc3nc(C)[nH]c(=O)c3cc21 (racemic),248 to 250 °C
2,O=C(NCCCCCCc1ccc(-c2ccc(=O)[nH]n2)cc1)c1cccnc1,178 to 179 °C
3,CC1CC(=O)c2cc(N)c(F)cc2O1 (stereo not given),135 to 138 °C
4,Clc1ccc2c(CCN3CCN(c4cccc5c4OCCO5)CC3)c[nH]c2c1,215 to 216 °C
5,NS(=O)(=O)c1cc(Cl)c(Cl)cc1OC(F)(F)F,181 to 185 °C
6,O=S(=O)(O)c1ccc(Nc2cnnc3cc(Cl)ccc23)cc1,> 280 °C
7,COCC(=O)N[C@H]1CC[C@H](CCN2CCN(c3nccc4c3OCC4)CC2)CC1,126 °C
8,CCOc1ccc(OC)cc1,30 to 31 °C
9,CN1C2CCC1CC(O)(c1ccc(Cl)c(Cl)c1)C2 (stereo not given),153 to 154 °C
10,CCOC(=O)c1cnc2ncnn2c1Cl,130 to 132 °C
11,O=CC(=Cc1ccccc1OCc1ccc(Br)cc1)C(C=O)=Cc1ccccc1OCc1ccc(Br)cc1,210 to 211 °C
12,[N-]=[N+]=NCCOc1ccc(F)c2c1CC(=O)N2,147 to 148 °C
13,O=C(O)Cc1cc2c(cc1Cc1ccccc1)OCO2,116 to 117 °C
14,CCCCCCCC(=O)c1cn(CCCC(=O)O)c2ccccc12,100 to 102 °C
15,COc1ccccc1-c1[nH]nc2c1C(=O)c1c(NC(C)=O)cccc1-2,276 °C
16,COC1CC2C3CCC4=CC(=O)CCC4(C)C3(F)C(O)CC2(C)C1(OC(C)=O)C(=O)CCl (stereo not given),243 to 245 °C
17,CCOC(=O)c1nc2cc(I)c(I)cc2[nH]c1=O,275 to 276 °C
18,COC(=O)C=C(C)c1ccc(-c2ccc(F)cc2F)cc1,90 to 92 °C
19,COc1ccccc1-c1ccc(C(=O)O)cc1C,160 to 162 °C
20,CC(=O)NCCc1cn(S(=O)(=O)c2c(Cl)nc3sccn23)c2ccccc12,150 to 152 °C

row,Compound,melting point
1,C=CCc1c(O)c(C)cc2c1C(C)(C)CC1(CC(C)(C)c3c(cc(C)c(O)c3CC=C)O1)O2,95 to 97 °C
2,CC(O)CCCCc1ccc(S(N)(=O)=O)s1 (stereo not given),75 to 76 °C
3,COc1cc2c(cc1Br)C(c1ccccc1Cl)=NC1=C(C)NNC1=N2,210 to 211 °C
4,CN1CCN(CCCNC(=O)CN2CCCC2=O)CC1,93 °C
5,CC(=O)C1=C(O)C(=C(C)Nc2ccc(O)cc2)C(=O)OC1=O,223 to 225 °C
6,CC(C)(C)c1nc(C=O)nc(C(C)(C)C)c1O,187 to 189 °C
7,O=C(O)COc1cc(Cl)ccc1C(=O)NCc1cc(C(F)(F)F)cc(C(F)(F)F)c1,191 to 193 °C
8,O=C(NCC(F)(F)F)C1(CCCCc2ccc(NS(=O)(=O)c3ccc([N+](=O)[O-])cc3)cc2)c2ccccc2-c2ccccc21,136 to 138 °C
9,CCOC(=O)c1ccc(CC(=O)Nc2csc3nc(C(=O)NCc4cccc(OC)c4)[nH]c(=O)c23)cc1,218 to 219 °C
10,COc1ccc(C=CC(=O)c2c(OC)cc(OC)cc2OC2OC(CO)C(O)C(O)C2NC(C)=O)cc1 (stereo not given),197 to 200 °C
11,COC(=O)c1ccc(C=CC(=O)N2CCc3c([nH]c4ccccc34)C2c2ccccc2)cc1 (stereo not given),222 °C
12,CC(C)[C@@H]1C[C@@H]([C@H](Br)CC2CCCCC2)OC1=O,95 to 95.5 °C
13,CCOC(=O)N1CCCc2nc3cc(C)ccc3c(C)c2C1,132 °C
14,Cn1ncc2c1-c1cc(Cl)ccc1N(C(=O)C1CC1)C2,146 to 150 °C
15,CC(C(=O)NC1=NCCS1)c1ccc(C(=O)c2cccs2)cc1 (stereo not given),186 °C
16,OC1CSC(Oc2cccc(-c3ccnc(Cl)c3)c2)C(O)C1O (stereo not given),207 °C
17,CCC(=O)c1cc(Cl)ccc1NS(=O)(=O)C(F)(F)F,54 to 55 °C
18,CC1(c2ccc(COc3ncc(Br)s3)cc2)OCCO1,129 to 131 °C
19,COc1cccc(NC(SC)=C(C#N)S(=O)(=O)C(C)C)c1,107 to 110 °C
20,CCc1nc2c(N)nc(C)c(C)c2n1NC1CCCCC1,190 to 192 °C

row,Compound,melting point
1,O=C1CCC(N2Cc3cc(CNC(=O)c4ccccc4)ccc3C2=O)C(=O)N1 (stereo not given),266 to 268 °C
2,COC(=O)COc1ccc2c(c1)sc1cc3ccccc3c(-c3ccc(O)cc3)c12,229 to 231 °C
3,COC(=O)c1cc(O)c(N=Nc2ccccc2)c(OC(C)=O)c1,162 °C
4,O=c1cccccc1S,55 °C
5,COC(=O)c1cc(OCC=C(Cl)Cl)cc(Cl)c1O,86 °C
6,COc1nc(NC(COC(=O)NC(C)C)C(C)(C)C)nc(OC)c1[N+](=O)[O-] (stereo not given),110 °C
7,Cn1c(CC(=O)O)ccc1C(=O)c1ccc(F)cc1,164 to 165 °C
8,CCCC(CCC)C(=O)NC1CCc2ccccc21 (stereo not given),133 to 134 °C
9,CN(C(=O)OC(C)(C)C)c1cc(Oc2ccc(-c3nnn(C(c4ccccc4)(c4ccccc4)c4ccccc4)n3)cc2)ccc1[N+](=O)[O-],161 to 163 °C
10,Cc1[nH]c(=O)n(-c2cc(C(=O)OC(C)C)c(Cl)cc2F)c(=O)c1Cl,198 to 201 °C
11,Cc1cc(C)nc(NC(=O)NS(=O)(=O)c2c(Cl)c(C)nn2C)n1,191 to 194 °C
12,CC1(C)OC(=O)Nc2ccc(-c3coc(C=NO)c3)cc21,236 to 238 °C
13,CC(=O)C(C)(C)c1nsc2ccc(-n3c(=O)cc(C(F)(F)F)n(C)c3=O)cc12,195 to 196 °C
14,CCOC(=O)C1=C(C)NC(N=CN(C)C)=C(C(=O)OCC)C1c1cccc([N+](=O)[O-])c1 (stereo not given),150 °C
15,CCOc1ccc2cccnc2c1[N+](=O)[O-],161 to 164 °C
16,CCCCCC(=O)N(NC(=O)c1ccccc1)C(C)(C)C,117 to 118 °C
17,O=C1c2cccc(Br)c2C(=O)N1CCCCCn1cncn1,102 to 104 °C
18,CCCOC(=O)c1ccc2c(c1)S[C@@H](c1ccc(OC)cc1)[C@@H](OC(C)=O)C(=O)N2CCN(C)C (racemic),114 to 119 °C
19,Cn1c(/C=C/CO)c(-c2ccccc2)c2ccccc2c1=O,209 °C
20,CCOc1cc(C(F)(F)F)cc(Cl)c1-n1nc(C#N)c(SC(F)(F)F)c1N,166 °C

# Now from value to molecule:
row,melting point,Compound
1,255 to 265 °C,Oc1cc(O)c(-c2nc(-c3ccccc3)nc(-c3ccccc3)n2)cc1Cl
2,132 to 134 °C,c1ccc(C(Sc2nnn[nH]2)c2ccccc2)cc1
3,132 °C,COc1ccc(Cn2cc[nH]c2=O)cc1
4,182 to 187 °C,CCN(CC)CC(=O)OC1CC2(C)C(C(C)=O)CCC2C2CCC3CC(O)C(Cl)CC3(C)C12 (stereo not given)
5,165 to 168 °C,CNC(=NC#N)NCCCCc1csc(NC(=N)N)n1
6,300 °C,O=C(O)C1Cc2cc3c(=O)c4c(F)cccc4oc3c(Cl)c2O1 (stereo not given)
7,134 to 135 °C,CCC(C)CNC(=O)c1ccc2cccc(Cc3ccc(C(=O)OC)cc3OC)c2c1 (stereo not given)
8,226 to 227 °C,CC(C)(C)OC(=O)c1ncn2c1[C@@H]1CCCN1C(=O)c1sccc1-2
9,166 to 167 °C,NC(=O)c1cccc(-c2c(F)ccc3cc(Cc4cccc(C(F)(F)F)c4)sc23)c1
10,150 to 152 °C,CC1CN2C(=NC1=O)CCC2C (stereo not given)
11,256 °C,Cc1ccc(N2C(=O)C(O)=C(C(=O)c3ccc(C(C)C)cc3)C2c2ccc(OCCN3CCOCC3)cc2)nn1 (stereo not given)
12,104 to 108 °C,CCN(CC)c1ccc(/C=C/c2cc(/C=C/c3ccc4cc[nH]c4c3)[nH]n2)c(OC)c1
13,216 to 217 °C,Nc1ncc(C2OC(CO)C(O)C2O)c(=O)[nH]1 (stereo not given)
14,120 to 122 °C,COC(=O)c1cc(OC)c(Br)c(OC)c1
15,250 to 252 °C,CC(C)NC1=NS(=O)(=O)c2ccc(Oc3ccccc3)cc2N1
16,155 to 157 °C,"CCOC(=O)C1=C(CSC(C)=O)NC=C(C(=O)OC)C1c1cccc(Cl)c1Cl (single isomer, unassigned; (-))"
17,143 to 144 °C,CC(C)=CCNC(=O)N1CC(Oc2cccc(C(F)(F)F)c2)C1
18,153 to 155 °C,CCOC(=O)Cc1ccc(-c2nc(COc3ccc(COc4nn(-c5ccccc5)cc4/C=C/c4csc(C)n4)cc3OC)c(C)o2)cc1
19,147 to 150 °C,C=CCOc1ccc(CC(=O)NCC(=O)N[C@@H](Cc2c[nH]cn2)C(=O)OC)cc1Cl
20,200 to 207 °C,Clc1ccc2nc(-c3ccccc3)c(-c3ccnnc3)n2n1

row,melting point,Compound
1,186 °C,O=C1c2ccccc2CC(=NO)c2ccccc21
2,110 to 111 °C,CC(C)c1ccc2c(-c3cc(C(C)(C)C)c(O)c(C(C)(C)C)c3)nn(CCO)c2n1
3,210 to 211 °C,Nc1ccc(OCC(COc2ccc(N)cc2)(COc2ccc(N)cc2)COc2ccc(N)cc2)cc1
4,97 to 99 °C,C[Si](Cn1ncnc1S)(c1ccc(F)cc1)c1ccc(F)cc1
5,264 °C,O=C(NCCCCN1CCC(c2csc3ccccc23)CC1)c1ccc(-c2ccc(C(F)(F)F)cc2)cc1
6,87 to 88 °C,CCOc1cc(OCC)nc(-c2ccc(C=O)cc2)n1
7,213 to 214 °C,Cc1cc(OCc2ccc(-c3ccccc3C(=O)O)cc2)c2ncccc2n1
8,228 to 229 °C,O=C1NCc2c(-c3ccccc3)cccc2N1CCN1CCOCC1
9,185 to 187 °C,N#Cc1cc(Br)ccc1NC(=O)c1cccc(S(=O)(=O)N2CCOCC2)c1
10,69 to 71.5 °C,CCCCCCCCCCCCCCCCCCNC(=O)OCC(CNS(=O)(=O)CCCI)Oc1ccon1 (stereo not given)
11,140 to 144 °C,CCN1c2cc(C)c(C)cc2N(C)C(=O)c2cccnc21
12,148 to 149 °C,CN1CCCC1=NC(=O)Nc1cccc2ccccc12
13,224 to 225 °C,O=C1NC(=O)C2(C=Cc3c2csc3Cl)N1 (stereo not given)
14,97 to 120 °C,CN(C(=O)N(C)n1cnc2ccccc2c1=O)c1ccc(Cl)cc1
15,75.8 °C,Cc1ccc(CSCCC(=O)O)cc1
16,140 °C,COc1cc(O)c(C(=O)C=Cc2cccn2C)c(OC)c1
17,181 to 182 °C,CCOC(=O)c1c(C)cc2nc(CO)n(-c3ccc(OC)c(OC)c3)c(=O)c2c1C
18,226 °C,O=C(NCCN1CCCCC1n1c(=O)[nH]c2ccccc21)c1cccc(F)c1 (stereo not given)
19,110 to 111 °C,CCOC(=O)C1=C(C)Nc2ccnc(OC(C)C)c2C1c1cccs1 (stereo not given)
20,242 to 243 °C,CCCn1c(-c2ccc(C#C[Si](C(C)C)(C(C)C)C(C)C)cc2)nc2cc(C#N)c(C#N)cc21
